The values that follow come from patent US4338122A, “Biocidal 2-aryl-1,3-cyclopentanedione compounds and alkali metal and ammonium salts thereof” (Union Carbide Corporation, priority 1980, dated 1982).

One test relates to Tomato. Nature of the test: Post-emergent herbicidal test, tomato. It counts as in vivo. Conditions: 2500 parts per million, after ten days. Also on record: key: 1: no perceptible injury; 2: intermediate degrees of injury based upon the number and extent to which leaves were injured; 3: intermediate degrees of injury based upon the number and extent to which leaves were injured; 4: intermediate degrees of injury based upon the number and extent to which leaves were injured; 5: the plant was dead. How it is done: (§1) Suspensions of the test compounds were prepared by dissolving one gram of compound in 50 milliliters of acetone in which had been dissolved 0.1 gram (10 percent of the weight of compound) of an alkylphenoxyethoxyethanol surfactant, as an emulsifying or dispersing agent. The resulting solution was mixed into 160 milliliters of water to give roughly 200 milliliters of a suspension containing the compound in finely divided form. The thus prepared stock suspension contained 0.5 percent by weight of compound. The test concentrations employed in the tests described herein below were obtained by diluting the stock suspension with water. The test procedures were as follows:
(§2) Experiments were also conducted to determine the phytotoxicity of representative compositions with respect to healthy fresh plants. Solutions of the compounds were prepared as described above to provide a concentration of 2500 parts per million of the test compound. The test plants were sprayed in accordance with the procedure described above for the Mite Foliage Spray Test so as to deliver approximately 100 milliliters of test solutions to the leaves of each plant tested. The sprayed plants and controls were set aside for approximately one hour to allow the solutions to dry and were then placed in the greenhouse. After ten days the plants were visually inspected to determine the extent of foliage injury. A rating of 1 indicates no perceptible injury; 5 indicates the plant was dead and ratings of 2, 3 and 4 indicate intermediate degrees of injury based upon the number and extent to which leaves were injured.
(§3) Tests were conducted in accordance with the procedures given at pages 32 to 37 supra. The results are expressed in the same manner as used in Table I, except with respect to miticidal activity. For mite adult and mite egg comparison purposes, results are given in parts per million (ppm) required for a 50 percent kill of mites or eggs, respectively.

The test system of a further test is Bean. Nature of the test: Post-emergent herbicidal test, bean. It counts as in vivo. Set-up: key: 1: no perceptible injury; 2: intermediate degrees of injury based upon the number and extent to which leaves were injured; 3: intermediate degrees of injury based upon the number and extent to which leaves were injured; 4: intermediate degrees of injury based upon the number and extent to which leaves were injured; 5: the plant was dead. The conditions noted are these: 2500 parts per million, after ten days. How it is done: as §1, §2, §3

For test [1], the system named is two-spotted mite (Tetranychus urticae (Koch)), adults and nymphal stages. Nature of the test: Mite Foliage Spray Test (adult miticidal). Format: in vivo. Also on record: key to Miticidal, Adult (control rating): A: Excellent Control; B: Partial Control; No Control. The conditions noted are these: for Miticidal, Adult (control rating): Table I, mortality count four days after spraying; for LC50: Tetranychus urticae, foliar, Table II, read-out: Miticidal LD50, Adult (ppm required for a 50 percent kill of mites). The method, then: as §1
Adults and nymphal stages of the two-spotted mite (Tetranychus urticae (Koch)), reared on Tendergreen bean plants at 80°±5° F. and 50±5 percent relative humidity, were the test organisms. Infested leaves from a stock culture were placed on the primary leaves of two bean plants six to eight inches in height, growing in a two-and-a-half inch clay pot. 150-200 Mites, a sufficient number for testing, transferred from the excised leaves to the fresh plants in a period of twenty-four hours. Following the twenty-four hour transfer period, the excised leaves were removed from the infested plants. The test compounds were formulated by diluting the stock suspension with water to provide suspensions containing the desired amount of test compound per million parts of final formulation. The potted plants (one pot per compound) were placed on a revolving turntable and sprayed with 100-110 milliliters of test compound formulation by use of a DeVilbis spray gun set at 40 psi. air pressure. This application, which lasted 30 seconds, was sufficient to wet the plants to run-off. As a control, 100-110 milliliters of a water solution containing acetone and emulsifier in the same concentrations as the test compound formulation, but containing no test compound, were also sprayed on infested plants. The sprayed plants were held at 80°±5° F. and 50±5 percent relative humidity for four days, after which, a mortality count of motile forms was made on the leaves of the test plants. Any individual which was capable of locomotion upon prodding was considered living.
In these tests the pesticidal activity of the compounds against mites and mite eggs were rated as follows:
as §3

The subject of a further test is Crabgrass. Nature of the test: Preliminary herbicide seed germination test (pre-emergent), crabgrass. Set-up: key: 5: no seedling emerged; 4: few seedlings emerged and/or very severe stunting; 3: moderate reduction in stand and/or moderate stunting; 2: very slight reduction in stand and/or slight stunting; 1: no injury; seedlings appear no different with respect to stand or growth than untreated controls. It counts as in vivo, Digitaria sanguinalis. Conditions: ten to twelve days after application. The method, then:
as §1
The following seeds were used in this test:
Crabgrass--Digitaria sanguinalis
Two soil-seed mixtures were prepared as follows:
Each of the above mixtures was rolled separately in 5 gallon containers for approximately one-half hour on ball mill to insure uniform mixing of seeds and soil. For each compound four 3-inch pots were filled with soil to within 11/2 inches of top of pots. To two of these pots were added 70 cc. of Mixture I. To the remaining 2 pots were added 70 cc. of Mixture II. The seed-soil mixture was tamped firmly, and the pots were removed to the green-house and watered lightly. About 2 hours after planting, 25 milliliters of the test formulation were added to one pot containing Mixture I and one pot containing Mixture II. An equal volume of a water solution containing acetone and an emulsifier in the same concentration as the herbicidal mixture but without the candidate herbicide was also added to each of the soil-seed mixtures. These pots are used as check or control units. The test compounds were formulated by diluting the stock suspension with water to obtain the desired concentration of the compound in parts per million of the final formulation. Each compound was tested at the same concentration. […] Ratings were made according to the following designations:
as §3

The next test relates to Cotton. Nature of the test: Post-emergent herbicidal test, cotton. Conditions: 2500 parts per million, after ten days. Format: in vivo. Also on record: key: 1: no perceptible injury; 2: intermediate degrees of injury based upon the number and extent to which leaves were injured; 3: intermediate degrees of injury based upon the number and extent to which leaves were injured; 4: intermediate degrees of injury based upon the number and extent to which leaves were injured; 5: the plant was dead. How it is done:
as §1, §2, §3

Values after ≈ are worked out from the molar mass of the structure shown.

For the molecule `Cc1ccc(C2C(=O)C3CCCCC3C2=O)c(C)c1` (stereo not shown) [CH3 CH3 H (CH2)4, 2-(2',4'-dimethylphenyl)-4,5,6,7,8,9-hexahydro-1,3-indandione], the “Post-Emergent Herbicidal, Tomato (injury rating)” value (“Post-Emergent Herbicidal, Tomato” below) in the test with Tomato (Table I) and in the test with Tomato (Table II) was 2 in each case. The “Post-Emergent Herbicidal, Bean (injury rating)” value (shortened to “Post-Emergent Herbicidal, Bean”) in the test with Bean (Table I) and with Bean (Table II) was 1 in each case. In addition, the “Miticidal, Adult (control rating)” value in test [1] is reported as “A”. Further, in test [1], the LC50 worked out at 7 µg/mL (≈ 27.3 µM). Also, the “Pre-emergent Herbicidal, Crabgrass (injury rating)” value (shortened to “Pre-emergent Herbicidal, Crabgrass”) in the test with Crabgrass (Table I) and in the test on Crabgrass (Table II) was 5 in each case. In addition, the “Post-Emergent Herbicidal, Cotton (injury rating)” value (shortened to “Post-Emergent Herbicidal, Cotton”) with Cotton (Table I) and in the test with Cotton (Table II) was 2 each time.

For the molecule `Cc1ccc(C2C(=O)CCC2=O)c(C)c1` [CH3 CH3 H H H, 2-(2',4'-dimethylphenyl)-1,3-cyclopentanedione], the “Post-Emergent Herbicidal, Tomato” value in the test with Tomato (Table I) and with Tomato (Table II) was 1 in each case. Also, the “Post-Emergent Herbicidal, Bean” value in the test with Bean (Table I) and with Bean (Table II) was 1 each time. The “Miticidal, Adult (control rating)” value in test [1] is “A”. The LC50 in test [1] came to 15 µg/mL (≈ 74.2 µM). Also, the “Pre-emergent Herbicidal, Crabgrass” value in the test with Crabgrass (Table I) and in the test with Crabgrass (Table II) was 5 in each case. Further, the “Post-Emergent Herbicidal, Cotton” value with Cotton (Table I) and with Cotton (Table II) was 1 each time.

Turning to `Cc1ccc(C)c(C2C(=O)C3CCCCC3C2=O)c1` (stereo not shown) [CH3 H CH3 (CH2)4, 2-(2',5'-dimethylphenyl)-4,5,6,7,8,9-hexahydro-1,3-indandione], the “Post-Emergent Herbicidal, Tomato” value in the test with Tomato (Table I) and in the test on Tomato (Table II) was 1 each time. The “Post-Emergent Herbicidal, Bean” value in the test on Bean (Table I) and in the test on Bean (Table II) was 1 each time. For the same molecule, the “Miticidal, Adult (control rating)” value in test [1] is “A”. Also, the LC50 in test [1] turned out to be 35 µg/mL (≈ 137 µM). The “Pre-emergent Herbicidal, Crabgrass” value with Crabgrass (Table I) and in the test with Crabgrass (Table II) was 1 in each case. Moreover, the “Post-Emergent Herbicidal, Cotton” value in the test on Cotton (Table I) and in the test on Cotton (Table II) was 1 in each case.

With `Cc1ccc(C)c(C2C(=O)CC(C)C2=O)c1` (stereo not shown) [CH3 H CH3 CH3 H, 2-(2',5'-Dimethylphenyl)-4-methyl-1,3-cyclopentanedione], the “Post-Emergent Herbicidal, Tomato” value in the test on Tomato (Table I) amounted to 2. In the test with Bean (Table I), the “Post-Emergent Herbicidal, Bean” value was determined as 2. For the same molecule, in test [1], the “Miticidal, Adult (control rating)” value was “A”. Besides, the “Pre-emergent Herbicidal, Crabgrass” value with Crabgrass (Table I) is 2. Moreover, in the test with Cotton (Table I), the “Post-Emergent Herbicidal, Cotton” value came out at 2.

For `Cc1ccc(C)c(C2C(=O)CCC2=O)c1` [CH3 H CH3 H H], the “Post-Emergent Herbicidal, Tomato” value in the test with Tomato (Table I) was 1. The “Post-Emergent Herbicidal, Bean” value in the test on Bean (Table I) stood at 2. In addition, the “Miticidal, Adult (control rating)” value in test [1] is listed as “A”. The “Pre-emergent Herbicidal, Crabgrass” value with Crabgrass (Table I) was determined as 2. Besides, the “Post-Emergent Herbicidal, Cotton” value in the test on Cotton (Table I) was 2.

Turning to `Cc1ccccc1C1C(=O)C2CCCCC2C1=O` (stereo not shown) [CH3 H H (CH2)4, 2-(2'-Methylphenyl)-4,5,6,7,8,9-hexahydro-1,3 indandione], the “Post-Emergent Herbicidal, Tomato” value in the test with Tomato (Table I) and in the test on Tomato (Table II) was 1 each time. For the same molecule, the “Post-Emergent Herbicidal, Bean” value in the test with Bean (Table I) and with Bean (Table II) was 2 in each case. In addition, the “Miticidal, Adult (control rating)” value in test [1] is on record as “A”. Besides, in test [1], the LC50 stood at 12 µg/mL (≈ 49.5 µM). In addition, the “Pre-emergent Herbicidal, Crabgrass” value in the test with Crabgrass (Table I) and with Crabgrass (Table II) was 3 in each case. In addition, the “Post-Emergent Herbicidal, Cotton” value in the test on Cotton (Table I) and in the test with Cotton (Table II) was 3 throughout.

With `Cc1ccccc1C1C(=O)CCC1=O` [CH3 H H H H, 2-(2'-methylphenyl)-1,3-cyclopentanedione], the “Post-Emergent Herbicidal, Tomato” value with Tomato (Table I) and in the test with Tomato (Table II) was 2 in each case. Also, the “Post-Emergent Herbicidal, Bean” value in the test on Bean (Table I) and with Bean (Table II) was 3 throughout. The “Miticidal, Adult (control rating)” value in test [1] is “A”. Besides, the LC50 in test [1] stood at 90 µg/mL (≈ 478 µM). For the same molecule, the “Pre-emergent Herbicidal, Crabgrass” value with Crabgrass (Table I) and with Crabgrass (Table II) was 2 throughout. Further, the “Post-Emergent Herbicidal, Cotton” value with Cotton (Table I) and in the test on Cotton (Table II) was 3 each time.

On to `O=C1CCC(=O)C1c1ccc(Cl)cc1Cl` [Cl Cl H H H, 2-(2',4'-Dichlorophenyl)-1,3-cyclopentanedione], for which, in the test with Tomato (Table I), the “Post-Emergent Herbicidal, Tomato” value was determined as 1. Also, the “Post-Emergent Herbicidal, Bean” value in the test on Bean (Table I) came out at 1. Besides, the “Miticidal, Adult (control rating)” value in test [1] is “A”. Further, the “Pre-emergent Herbicidal, Crabgrass” value in the test on Crabgrass (Table I) was found to be 1. For the same molecule, the “Post-Emergent Herbicidal, Cotton” value in the test on Cotton (Table I) was determined as 2.

Regarding `O=C1CCC(=O)C1c1ccccc1Cl` [Cl H H H H], the “Post-Emergent Herbicidal, Tomato” value with Tomato (Table I) came to 1. In the test on Bean (Table I), the “Post-Emergent Herbicidal, Bean” value came to 3. The “Miticidal, Adult (control rating)” value in test [1] is “B”. Also, the “Pre-emergent Herbicidal, Crabgrass” value in the test on Crabgrass (Table I) came out at 3. Also, in the test on Cotton (Table I), the “Post-Emergent Herbicidal, Cotton” value was 2.

As for `Cc1ccccc1C1C(=O)c2ccccc2C1=O` [Reference I Page 3, Compound 1, reference compound], the “Post-Emergent Herbicidal, Tomato” value in the test on Tomato (Table II) is 2. In the test on Bean (Table II), the “Post-Emergent Herbicidal, Bean” value stood at 2. Further, in test [1], the LC50 was 200 µg/mL (≈ 846 µM). Besides, the “Pre-emergent Herbicidal, Crabgrass” value in the test with Crabgrass (Table II) is on record as 2. Besides, in the test on Cotton (Table II), the “Post-Emergent Herbicidal, Cotton” value stood at 1.

Take `Cc1ccc(C)c(C2C(=O)c3ccccc3C2=O)c1` [Reference II Page 146, Compound 6, reference compound]: the “Post-Emergent Herbicidal, Tomato” value with Tomato (Table II) is on record as 1. Also, the “Post-Emergent Herbicidal, Bean” value in the test on Bean (Table II) was determined as 1. The LC50 in test [1] came to 500 µg/mL (≈ 2000 µM). For the same molecule, the “Pre-emergent Herbicidal, Crabgrass” value in the test with Crabgrass (Table II) is listed as 1. Also, in the test on Cotton (Table II), the “Post-Emergent Herbicidal, Cotton” value is given as 1.

With `Cc1ccc(C2C(=O)c3ccccc3C2=O)c(C)c1` [Reference II Page 146, Compound 9, reference compound], the “Post-Emergent Herbicidal, Tomato” value with Tomato (Table II) was found to be 1. Further, the “Post-Emergent Herbicidal, Bean” value with Bean (Table II) is listed as 1. In addition, the LC50 in test [1] came out at 40 µg/mL (≈ 160 µM). Further, in the test with Crabgrass (Table II), the “Pre-emergent Herbicidal, Crabgrass” value is 3. For the same molecule, the “Post-Emergent Herbicidal, Cotton” value in the test on Cotton (Table II) was 1.
